Experimental data from patent publication EP0603240B1, “SAFENING HERBICIDAL PYRAZOLYLSULFONYLUREAS” (priority 1991, dated 1993).
Read-outs that look alike come from different tables or passages of the source.

Assays:
Type in all cases: in vivo
corn [1] = experiment: Example 23, Procedure II: Antidote Nos. 15 and 17-21 against Herbicide No. 1, 13 days after application; conditions: Zea mays, 312 h, no antidote, 13 days after application; for inhibition at 140 g/ha: Herb. No. 1 0.14 Kg/Ha; for inhibition at 280 g/ha: Herb. No. 1 0.28 Kg/Ha; for inhibition at 560 g/ha: Herb. No. 1 0.56 Kg/Ha; for inhibition at 1120 g/ha: Herb. No. 1 1.12 Kg/Ha
Method: (§1) Containers were filled and compacted with a fumigated silt loam top soil to a depth of about 1.3 cm from the top of the container. A first container was designated as an untreated control, a second container was designated as a herbicide control, and a third container was designated as a herbicide + antidote test container. Each of the containers was seeded with a crop species. A measured amount of herbicide dispersed or dissolved in acetone was applied to a measured quantity of soil. To this same quantity of soil treated with herbicide, there was added a measured amount of antidote dispersed or dissolved in acetone. The quantity of soil treated with the herbicide and antidote was thoroughly mixed to incorporate the herbicide and antidote in the soil uniformly. The seed bed in the third container of soil was covered with the soil treated with the herbicide and antidote and the container was leveled. For each test series, the seed beds of the first and second containers were likewise covered by soil layers. the cover layer of the first container was not treated with herbicide or antidote.
(§2) The containers were then placed on a bench in a greenhouse and sub-irrigated as required for the duration of the test. […] Plant response is measured in terms of percent injury. Antidote efficacy is indicated as the difference in plant injury by the herbicide(s) without the antidote and with the antidote.
(§3) This procedure is the same as Procedure I, but modified in the manner that after incorporation of the chemicals (herbicide and antidote) the containers with the covered seedbed were treated with an initial overhead irrigation equivalent to 0.6 cm rainfall, then subsequently sub-irrigated as required on greenhouse benches.
(§4) In other greenhouse tests, using Procedure II described above, the safening efficacy of Antidote Nos. 15 and 17-21 was evaluated against Herbicide No. 1 in corn in the presence of Giant foxtail (Setaria fabergi) and Velvetleaf (Abutilon theophrasti) as representative annual monocotyledonous and dicotyledonous weeds, respectively.
(§5) Test results are shown in Tables 23A and 23B wherein the indicated plant inhibition represents the average of duplicate replications, with observations being made thirteen (13) days after application of the chemicals. Giant foxtail and Velvetleaf are represented by the symbols "GFT" and "VL", respectively. The data in Table 23A show the test results using the antidotes at 2.24 kg/ha, whereas in Table 23B, the antidotal rate was reduced to 0.56 kg/ha.

[2] = test system: Giant foxtail (Setaria fabergi); experiment: as above; conditions: Setaria, 312 h
Method: as §1, §2, §3, §4, §5

[3] = test system: velvetleaf (Abutilon theophrasti); experiment: as above; conditions: Abutilon theophrasti, 312 h
Method: as §1, §2, §3, §4, §5

corn [4] = experiment: Example 24, Procedure II: Herbicide No. 1 + co-herbicides Nos. 4, 6, 7, 12 with Antidote Nos. 15 and 17-21; conditions: Zea mays
How it was run: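 Greenhouse pots, herbicide No. 1 plus co-herbicides and antidote in acetone incorporated into silt loam soil covering the corn seed bed, with giant foxtail and velvetleaf; initial overhead irrigation equal to 0.6 cm rainfall, then sub-irrigation. Antidote at 2.24 kg/ha; percent injury read 13 days after application, duplicate average.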

corn [5] = experiment: Example 22: retest of Example 21 at reduced greenhouse temperatures; conditions: Table 22
Method: as §1, §2, §3
In this example, tests were conducted as in the preceding Examples 18-20, except here the co-herbicidal component was SUTAN® PLUS, a commercial product comprising as the active herbicidal ingredient the compound butylate (Herbicide No. 10) and an antidote […] (Antidote No. 1). Again, the antidotal compounds herein were Nos. 1, 2, 7, 13 and 15. Procedure II was used.
The experiments in this example were designed as a retest of those described in Example 21 in view of the uncharacteristically poor corn safety and weed control, believed to have resulted from unseasonably high temperatures in the greenhouse. Accordingly, temperatures were reduced for these tests.

corn [6] = experiment: Example 6, Procedure II: Herbicide No. 1 + alachlor (No. 7) with antidotes
Method: as §1, §2, §3
This example was designed to investigate the antidotal efficacy of a plurality of antidotal compounds against a composition comprising Herbicide No. 1 in combination with Herbicide No. 7 (alachlor). The antidotal compounds used herein were Nos. 1, 2, 7, 13 and 15.
In this example, Procedure II described above was followed. The data from the tests in this example is shown in Table 6 and represents averages of duplicate replications.

[7] = read-out: % Inhibition Corn, Table 23A
[8] = read-out: % Inhibition Corn, Table 23B

With COC(=O)c1c(Cl)nn(C)c1S(=O)(=O)NC(=O)Nc1nc(OC)cc(OC)n1 [Herbicide No. 1] the inhibition at 140 g/ha (corn [1]; [7]) was 15%, the inhibition at 280 g/ha (corn [1]; [7]) was 25% and the inhibition at 560 g/ha (corn [1]; [7]) was 50%. It also gave an inhibition at 1120 g/ha (corn [1]; [7]) of 65%, an inhibition at 140 g/ha (corn [1]; [8]) of 10% and an inhibition at 280 g/ha (corn [1]; [8]) of 25%. The inhibition at 560 g/ha (corn [1]; [8]) was 40%, the inhibition at 1120 g/ha (corn [1]; [8]) was 60% and the inhibition at 140 g/ha ([2]; read-out: % Inhibition GFT, Table 23A, Herb. No. 1 0.14 Kg/Ha, no antidote) was 25%. For the same compound, the inhibition at 280 g/ha ([2]; read-out: % Inhibition GFT, Table 23A, Herb. No. 1 0.28 Kg/Ha, no antidote) was 35%, the inhibition at 560 g/ha ([2]; read-out: % Inhibition GFT, Table 23A, Herb. No. 1 0.56 Kg/Ha, no antidote) was 60% and the inhibition at 1120 g/ha ([2]; read-out: % Inhibition GFT, Table 23A, Herb. No. 1 1.12 Kg/Ha, no antidote) was 80%. It also gave an inhibition at 140 g/ha ([2]; read-out: % Inhibition GFT, Table 23B, Herb. No. 1 0.14 Kg/Ha, no antidote) of 30%, an inhibition at 280 g/ha ([2]; read-out: % Inhibition GFT, Table 23B, Herb. No. 1 0.28 Kg/Ha, no antidote) of 30% and an inhibition at 560 g/ha ([2]; read-out: % Inhibition GFT, Table 23B, Herb. No. 1 0.56 Kg/Ha, no antidote) of 60%. For the same compound, the inhibition at 1120 g/ha ([2]; read-out: % Inhibition GFT, Table 23B, Herb. No. 1 1.12 Kg/Ha, no antidote) was 70%, the inhibition at 140 g/ha ([3]; read-out: % Inhibition VL, Table 23A, Herb. No. 1 0.14 Kg/Ha, no antidote) was 90% and the inhibition at 280 g/ha ([3]; read-out: % Inhibition VL, Table 23A, Herb. No. 1 0.28 Kg/Ha, no antidote) was 90%. It also gave an inhibition at 560 g/ha ([3]; read-out: % Inhibition VL, Table 23A, Herb. No. 1 0.56 Kg/Ha, no antidote) of 95%, an inhibition at 1120 g/ha ([3]; read-out: % Inhibition VL, Table 23A, Herb. No. 1 1.12 Kg/Ha, no antidote) of 95% and an inhibition at 140 g/ha ([3]; read-out: % Inhibition VL, Table 23B, Herb. No. 1 0.14 Kg/Ha, no antidote) of 85%. It also gave an inhibition at 280 g/ha ([3]; read-out: % Inhibition VL, Table 23B, Herb. No. 1 0.28 Kg/Ha, no antidote) of 95%, an inhibition at 560 g/ha ([3]; read-out: % Inhibition VL, Table 23B, Herb. No. 1 0.56 Kg/Ha, no antidote) of 90% and an inhibition at 1120 g/ha ([3]; read-out: % Inhibition VL, Table 23B, Herb. No. 1 1.12 Kg/Ha, no antidote) of 90%. It also gave an inhibition at 1120 g/ha (corn [4]; read-out: % Inhibition Corn, Herb. No. 1 0.07 Kg/ha + Co-Herb. No. 4 1.12 Kg/ha, no antidote) of 10%, an inhibition at 140 g/ha (corn [4]; read-out: % Inhibition Corn, Herb. No. 1 0.07 Kg/ha + Co-Herb. No. 6 0.14 Kg/ha, no antidote) of 5% and an inhibition at 280 g/ha (corn [4]; read-out: % Inhibition Corn, Herb. No. 1 0.07 Kg/ha + Co-Herb. No. 7 0.28 Kg/ha, no antidote) of 5%. It also gave an inhibition at 280 g/ha (corn [4]; read-out: % Inhibition Corn, Herb. No. 1 0.07 Kg/ha + Co-Herb. No. 12 0.28 Kg/ha, no antidote) of 5%, an inhibition at 1120 g/ha (corn [4]; read-out: % Inhibition Corn, Herb. No. 1 0.14 Kg/ha + Co-Herb. No. 4 1.12 Kg/ha, no antidote) of 20% and an inhibition at 140 g/ha (corn [4]; read-out: % Inhibition Corn, Herb. No. 1 0.14 Kg/ha + Co-Herb. No. 6 0.14 Kg/ha, no antidote) of 20%. For the same compound, the inhibition at 280 g/ha (corn [4]; read-out: % Inhibition Corn, Herb. No. 1 0.14 Kg/ha + Co-Herb. No. 7 0.28 Kg/ha, no antidote) was 15%, the inhibition at 280 g/ha (corn [4]; read-out: % Inhibition Corn, Herb. No. 1 0.14 Kg/ha + Co-Herb. No. 12 0.28 Kg/ha, no antidote) was 10% and the inhibition at 1120 g/ha (corn [4]; read-out: % Inhibition Corn, Herb. No. 1 0.28 Kg/ha + Co-Herb. No. 4 1.12 Kg/ha, no antidote) was 25%. The inhibition at 140 g/ha (corn [4]; read-out: % Inhibition Corn, Herb. No. 1 0.28 Kg/ha + Co-Herb. No. 6 0.14 Kg/ha, no antidote) was 25%, the inhibition at 280 g/ha (corn [4]; read-out: % Inhibition Corn, Herb. No. 1 0.28 Kg/ha + Co-Herb. No. 7 0.28 Kg/ha, no antidote) was 30% and the inhibition at 280 g/ha (corn [4]; read-out: % Inhibition Corn, Herb. No. 1 0.28 Kg/ha + Co-Herb. No. 12 0.28 Kg/ha, no antidote) was 30%. It also gave an inhibition at 1120 g/ha (corn [4]; read-out: % Inhibition Corn, Herb. No. 1 0.56 Kg/ha + Co-Herb. No. 4 1.12 Kg/ha, no antidote) of 40%, an inhibition at 140 g/ha (corn [4]; read-out: % Inhibition Corn, Herb. No. 1 0.56 Kg/ha + Co-Herb. No. 6 0.14 Kg/ha, no antidote) of 40% and an inhibition at 280 g/ha (corn [4]; read-out: % Inhibition Corn, Herb. No. 1 0.56 Kg/ha + Co-Herb. No. 7 0.28 Kg/ha, no antidote) of 45%. The inhibition at 280 g/ha (corn [4]; read-out: % Inhibition Corn, Herb. No. 1 0.56 Kg/ha + Co-Herb. No. 12 0.28 Kg/ha, no antidote) was 45%, the “% Injury Corn” value (corn [5]; Herbicide No.1 0.56 Kg/ha + SUTAN + 8.96 Kg/ha, no added antidote) was 55% and the “% Injury Corn” value (corn [5]; Herbicide No.1 0.56 Kg/ha alone) was 60%. The “% Injury Corn” value (corn [5]; Herbicide No.1 1.12 Kg/ha + SUTAN + 8.96 Kg/ha, no added antidote) was 60%, the “% Injury Corn” value (corn [5]; Herbicide No.1 1.12 Kg/ha alone) was 65% and the “% Injury Corn” value (corn [6]; Herbicide No.1 0.14 + No.7 4.48 kg/ha, no antidote) was 20%. For the same compound, the “% Injury Corn” value (corn [6]; Herbicide No.1 0.14 kg/ha alone) was 5%, the “% Injury Corn” value (corn [6]; Herbicide No.1 0.56 + No.7 (alachlor) 4.48 kg/ha, no antidote, average of duplicates) was 30% and the “% Injury Corn” value (corn [6]; Herbicide No.1 0.56 kg/ha alone) was 25%.
